Experimental data from PMC8355244, “A fragment-based approach identifies an allosteric pocket that impacts malate dehydrogenase activity” (Communications Biology, 2021).
Where “and” joins values, the source holds several entries; their conditions need not be identical. Equal entries are not always repeated.

Target: T1, PfMDH (Plasmodium falciparum, UniProt Q6VVP7)
T1 construct: The full-length WT PfMDH gene was cloned into pETM-13; made in house; host or cells: E. coli Rosetta 2 (DE3) pLysS
Assay: Thermal shift assay (TSA)
Type: binding
Conditions: for TSA melting curve raw signal: triplicate columns; for TSA melting curve raw fluorescence signal: three replicate columns
Description: The TSA experiment was conducted in a BioRad CSX 96 (Biorad). Each reaction consisted of 1 mM of compound (100 mM stock in 100% (v/v) DMSO) and 10 μM PfMDH in 100 mM Na–phosphate buffer pH 7.4, 400 mM NaCl, and 10× Sypro Orange (Invitrogen) for a total volume of 100 μl. Control experiments were performed with 1% (v/v) DMSO. Inflection points were determined using BioRad CFX96™ control software. Generally, a temperature increase of over 1 °C is interpreted as a result of the stabilization of the protein-ligand interaction. On the contrary, a negative shift is considered a destabilization caused by the fragment.

T1 sequence (Q6VVP7 entry or part of it): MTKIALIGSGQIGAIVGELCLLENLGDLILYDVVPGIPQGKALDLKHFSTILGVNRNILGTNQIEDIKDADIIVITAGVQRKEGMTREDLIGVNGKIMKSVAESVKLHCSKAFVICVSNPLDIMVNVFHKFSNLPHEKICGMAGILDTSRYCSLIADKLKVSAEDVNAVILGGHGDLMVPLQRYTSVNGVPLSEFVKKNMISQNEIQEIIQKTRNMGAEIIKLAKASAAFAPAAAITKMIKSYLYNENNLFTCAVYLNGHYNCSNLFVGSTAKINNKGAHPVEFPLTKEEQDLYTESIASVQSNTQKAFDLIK

Cc1ccc(-c2csc(N)n2)cc1C [compound 5a]
TSA melting curve raw signal (Temperature 42): 3988,71833711846 and 3998,73387424263 and 4016,77538143681
TSA melting curve raw signal (Temperature 42.5): 4021,21607007206 and 4019,84430210471 and 4054,60967755587
TSA melting curve raw signal (Temperature 43): 4057,66089779623 and 4044,0111947974 and 4095,39361771176
TSA melting curve raw signal (Temperature 43.5): 4098,50799079596 and 4071,35680793258 and 4139,49703067488
TSA melting curve raw signal (Temperature 44): 4143,7029279742 and 4102,93490558282 and 4187,23267299696
TSA melting curve raw signal (Temperature 44.5): 4193,76415817757 and 4139,12758979339
TSA melting curve raw fluorescence signal (Temperature 73.5): 6299,79889324093 and 6231,78067625527 and 6109,60097267495
TSA melting curve raw fluorescence signal (Temperature 74): 6263,77685489112 and 6199,60301810331 and 6079,58574419186
TSA melting curve raw fluorescence signal (Temperature 74.5): 6227,81230039343 and 6168,07294306546 and 6050,3648537714
TSA melting curve raw fluorescence signal (Temperature 75): 6191,69391237371 and 6136,98106377792 and 6022,22137708791
TSA melting curve raw fluorescence signal (Temperature 75.5): 6155,53394325777 and 6106,56217628376 and 5994,69779058543
TSA melting curve raw fluorescence signal (Temperature 76): 6119,21897947977 and 6076,80705748139 and 5967,4462924716
TSA melting curve raw fluorescence signal (Temperature 76.5): 6082,92591216179 and 6047,4145361092 and 5940,31651314489
TSA melting curve raw fluorescence signal (Temperature 77): 6046,49720538895 and 6018,41753205572 and 5913,27495012434
TSA melting curve raw fluorescence signal (Temperature 77.5): 6010,50289688288 and 5990,00501222795 and 5885,78980691114
TSA melting curve raw fluorescence signal (Temperature 78): 5974,68191071035 and 5961,9413128759 and 5858,29554785782
TSA melting curve raw fluorescence signal (Temperature 78.5): 5938,84446109596 and 5933,98335794503 and 5831,1047548002
TSA melting curve raw fluorescence signal (Temperature 79): 5902,97195912381 and 5906,58331664414 and 5804,43914738993
TSA melting curve raw fluorescence signal (Temperature 79.5): 5867,41053847852 and 5879,50936774398 and 5777,86836204367
TSA melting curve raw fluorescence signal (Temperature 80): 5831,53193853565 and 5852,76984504973 and 5751,94689709266
TSA melting curve raw fluorescence signal (Temperature 80.5): 5795,82019427429 and 5826,58557638173 and 5726,2038969697
TSA melting curve raw fluorescence signal (Temperature 81): 5760,30095342266 and 5801,18894213247 and 5700,36557719877
TSA melting curve raw fluorescence signal (Temperature 81.5): 5725,24994225392 and 5776,10279717956 and 5674,32010159986
TSA melting curve raw fluorescence signal (Temperature 82): 5690,32532905286 and 5751,3477386949 and 5648,72005725552
TSA melting curve raw fluorescence signal (Temperature 82.5): 5655,78245522646 and 5726,77680893998 and 5623,03287837809
TSA melting curve raw fluorescence signal (Temperature 83): 5621,55211537617 and 5702,38981297221 and 5597,5741352507
TSA melting curve raw fluorescence signal (Temperature 83.5): 5587,90100461892 and 5677,89080987549 and 5572,13715933177
TSA melting curve raw fluorescence signal (Temperature 84): 5554,68764858678 and 5653,54864689514 and 5546,61264074355
TSA melting curve raw fluorescence signal (Temperature 84.5): 5522,12797974512 and 5629,23115607744 and 5520,89063035555
TSA melting curve raw fluorescence signal (Temperature 85): 5490,3943722303 and 5605,20109514197 and 5495,02372927899
TSA melting curve raw fluorescence signal (Temperature 85.5): 5459,26859138261 and 5580,93868945953 and 5469,03090217972
TSA melting curve raw fluorescence signal (Temperature 86): 5428,58283846294 and 5556,95201224284 and 5443,19308365262
TSA melting curve raw fluorescence signal (Temperature 86.5): 5398,09747442684 and 5532,99737771582 and 5417,41903670835
TSA melting curve raw fluorescence signal (Temperature 87): 5367,90135308437 and 5508,96565185791 and 5391,30496945424
TSA melting curve raw fluorescence signal (Temperature 87.5): 5337,34531670684 and 5484,37750610498 and 5364,66521912081
TSA melting curve raw fluorescence signal (Temperature 88): 5306,8503048902 and 5459,61999119873 and 5337,15073673697
TSA melting curve raw fluorescence signal (Temperature 88.5): 5276,4616972104 and 5434,08494262397 and 5308,68599271431
TSA melting curve raw fluorescence signal (Temperature 89): 5246,27326568905 and 5407,79046445709 and 5279,36241888361
TSA melting curve raw fluorescence signal (Temperature 89.5): 5216,45044474314 and 5380,95498835197 and 5249,45359350464
TSA melting curve raw fluorescence signal (Temperature 90): 5187,98991931244
